Experimental data taken from patent US11555012B2 (Nimbus Artemis, Inc., priority 2018, dated 2023).
pIC50: −log10 of the molar value.

Target: ACL (Homo sapiens (Human), UniProt P53396)
Assay: ADP-Glo Assay
Details: not given

Sequence of ACL (P53396 other isoform, or with tags, fused parts or gaps isoform P53396-2): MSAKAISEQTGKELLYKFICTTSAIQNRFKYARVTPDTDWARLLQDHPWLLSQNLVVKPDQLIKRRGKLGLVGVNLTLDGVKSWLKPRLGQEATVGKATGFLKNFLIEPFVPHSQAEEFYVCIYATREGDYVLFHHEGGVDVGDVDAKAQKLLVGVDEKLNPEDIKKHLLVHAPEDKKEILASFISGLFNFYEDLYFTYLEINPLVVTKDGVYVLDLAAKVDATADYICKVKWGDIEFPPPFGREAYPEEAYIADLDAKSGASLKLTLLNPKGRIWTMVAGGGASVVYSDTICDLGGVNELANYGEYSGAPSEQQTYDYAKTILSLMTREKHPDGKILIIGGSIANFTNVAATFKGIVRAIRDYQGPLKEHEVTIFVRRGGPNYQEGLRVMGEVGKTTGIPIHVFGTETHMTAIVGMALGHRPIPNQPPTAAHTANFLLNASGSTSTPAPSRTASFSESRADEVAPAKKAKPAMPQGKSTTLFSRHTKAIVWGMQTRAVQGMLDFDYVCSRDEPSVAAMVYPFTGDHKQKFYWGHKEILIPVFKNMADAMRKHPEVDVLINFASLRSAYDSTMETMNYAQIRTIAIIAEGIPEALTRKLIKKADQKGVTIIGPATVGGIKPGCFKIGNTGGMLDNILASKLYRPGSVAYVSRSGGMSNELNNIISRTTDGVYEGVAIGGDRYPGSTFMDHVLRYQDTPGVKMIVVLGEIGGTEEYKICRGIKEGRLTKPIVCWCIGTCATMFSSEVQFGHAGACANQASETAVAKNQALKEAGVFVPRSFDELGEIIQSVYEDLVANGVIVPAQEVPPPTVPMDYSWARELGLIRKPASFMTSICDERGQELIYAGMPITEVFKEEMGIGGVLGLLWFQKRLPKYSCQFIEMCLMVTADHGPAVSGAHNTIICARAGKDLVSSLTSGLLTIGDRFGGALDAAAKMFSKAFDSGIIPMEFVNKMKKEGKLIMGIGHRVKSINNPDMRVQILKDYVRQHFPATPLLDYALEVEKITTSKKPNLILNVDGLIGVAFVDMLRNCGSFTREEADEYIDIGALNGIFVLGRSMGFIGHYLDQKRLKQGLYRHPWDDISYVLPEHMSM

SMILES | pIC50
O=S(=O)(Nc1cc(-n2nnnc2C2CC2)ccc1F)c1cc(Cl)cc(Cl)c1O [I-164] | 4.70 to 6.30
COc1ccc(C(=O)O)cc1S(=O)(=O)Nc1cc(-c2ccccc2)c(F)cc1F [I-529, 3-(N-(4,6-difluoro-[1,1′-biphenyl]-3-yl)sulfamoyl)-4-methoxybenzoic acid] | < 4.70
O=C(O)c1ccc(-c2ccccc2)cc1NS(=O)(=O)CCC1CCCC1 [I-356] | 4.70 to 6.30
O=C(O)c1ccsc1NS(=O)(=O)c1cc(Cl)cc(Cl)c1 [I-352, 2-((3,5-dichlorophenyl)sulfonamido)thiophene-3-carboxylic Acid] | 4.70 to 6.30
O=C(O)COc1c(Cl)cc(Cl)cc1C(=O)Nc1cc(-c2ccccc2)ccc1C(=O)O [I-308, 3-(2-(carboxymethoxy)-3,5-dichlorobenzamido)-[1,1′-biphenyl]-4-carboxylic Acid] | 4.70 to 6.30
N#Cc1cc(S(=O)(=O)Nc2cc(-c3ccccc3)c(F)cc2F)ccc1Cl [I-196, 4-chloro-3-cyano-N-(4,6-difluoro-[1,1′-biphenyl]-3-yl) benzenesulfonamide] | 4.70 to 6.30
O=C(NO)c1ccc(F)c(NS(=O)(=O)c2cc(Cl)cc(Cl)c2O)c1 [I-45, 3-[(3,5-dichloro-2-hydroxybenzene)sulfonamido]-4-fluoro-N-hydroxybenzamide] | 4.70 to 6.30
O=C(O)c1ccc(-c2ccccc2)cc1NCc1cc(Cl)cc(Cl)c1 [I-267, 3-((3,5-dichlorobenzyl)amino)-[1,1′-biphenyl]-4-carboxylic Acid] | 4.70 to 6.30
O=C(O)c1ccc(-c2ccccc2)cc1NS(=O)(=O)c1cccc(C(F)(F)F)c1 [I-292, 3-((3-(trifluoromethyl)phenyl)sulfonamido)-[1,1′-biphenyl]-4-carboxylic acid] | 4.70 to 6.30
O=C(O)c1cc(Cl)ccc1NS(=O)(=O)c1cc(Cl)cc(Cl)c1 [I-343, 5-chloro-2-((3,5-dichlorophenyl)sulfonamido)benzoic Acid] | 4.70 to 6.30
COc1cccc(-c2ccccc2)c1NS(=O)(=O)c1cc(Cl)cc(Cl)c1O [I-14, 3,5-dichloro-2-hydroxy-N-(3-methoxy-[1,1′-biphenyl]-2-yl)benzenesulfonamide] | 4.70 to 6.30
COc1ccc(F)cc1S(=O)(=O)Nc1cc(-c2ccccc2)ccc1C(=O)O [I-315, 3-((5-fluoro-2-methoxyphenyl)sulfonamido)-[1,1′-biphenyl]-4-carboxylic Acid] | 4.70 to 6.30
O=C(Nc1cc(C(=O)N2CCC2)cc(Cl)c1O)c1cc(-c2ccccc2)ccc1F [I-216, N-(5-(azetidine-1-carbonyl)-3-chloro-2-hydroxyphenyl)-4-fluoro-[1,1′-biphenyl]-3-carboxamide] | 4.70 to 6.30
CCC(=O)Nc1c(Cl)cc(Cl)cc1S(=O)(=O)Nc1cc(-c2ccccc2)ccc1OC [I-440, N-[2,4-dichloro-6-[(2-methoxy-5-phenylphenyl)sulfamoyl]phenyl]propanamide] | < 4.70
O=C(O)c1ccc(-c2ccccc2)cc1NS(=O)(=O)CC1CCCC1 [I-274] | 4.70 to 6.30
COc1ccc(-c2ccccc2)cc1NS(=O)(=O)c1cc(C(=O)N2CCNCC2)cc(Cl)c1O [I-277, 3-chloro-2-hydroxy-N-[4-methoxy-[1,1-biphenyl]-3-yl]-5-(piperazine-1-carbonyl)benzene-1-sulfonamide] | 4.70 to 6.30
CN(C)C(=O)c1cc(Cl)c(O)c(S(=O)(=O)Nc2cc(C3CC3)c(F)cc2F)c1 [I-231, 3-chloro-5-(N-(5-cyclopropyl-2,4-difluorophenyl)sulfamoyl)-4-hydroxy-N,N-dimethylbenzamide] | 4.70 to 6.30
COCc1cc(Cl)cc(S(=O)(=O)Nc2cc(-c3ccccc3)ccc2C(=O)O)c1 [I-337] | 4.70 to 6.30
O=S(=O)(Nc1cc(-c2ccccc2)c(F)cc1F)c1cccc2ccccc12 [I-376, N-(4,6-difluoro-[1,1 biphenyl]-3-yl)naphthalene-1-sulfonamide] | < 4.70

Now from value to compound:

pIC50 | SMILES
4.70 to 6.30 | O=C(O)c1ccc(-c2ccccc2)cc1NS(=O)(=O)c1cc(Cl)cc(Cl)c1F [I-342, 3-((3,5-dichloro-2-fluorophenyl)sulfonamido)-[1,1′-biphenyl]-4-carboxylic Acid]
4.70 to 6.30 | COc1ccc(-c2ccccc2)cc1NS(=O)(=O)c1cc(Cl)cc(Cl)c1NS(C)(=O)=O [I-263, 3,5-dichloro-2-methanesulfonamido-N-[4-methoxy-[1,1-biphenyl]-3-yl]benzene-1-sulfonamide]
4.70 to 6.30 | Cn1ncc(-c2ccccc2)c1NS(=O)(=O)c1cc(Cl)cc(Cl)c1O [I-109, 3,5-dichloro-2-hydroxy-N-(1-methyl-4-phenyl-1H-pyrazol-5-yl)benzenesulfonamide]
4.70 to 6.30 | NC(=O)COc1c(Cl)cc(Cl)cc1C(=O)Nc1cc(-c2ccccc2)ccc1C(=O)O [I-320, 3-(2-(2-amino-2-oxoethoxy)-3,5-dichlorobenzamido)-[1,1′-biphenyl]-4-carboxylic Acid]
< 4.70 | O=C(O)c1ccc(-c2ccccc2)cc1NS(=O)(=O)c1cn[nH]c1 [I-445]
4.70 to 6.30 | COC(=O)c1cc(Cl)c(OCC(=O)O)c(S(=O)(=O)Nc2cc(-c3ccccc3)ccc2F)c1 [I-114, 2-[2-chloro-6-([4-fluoro-[1,1-biphenyl]-3-yl]sulfamoyl)-4-(methoxycarbonyl)phenoxy]acetic Acid]
6.30 to 7.30 | CCC(=O)Oc1c(Cl)cc(C(=O)OC)cc1S(=O)(=O)Nc1cc(-c2ccccc2)ccc1F [I-120, Methyl 3-chloro-5-([4-fluoro-[1,1-biphenyl]-3-yl]sulfamoyl)-4-(propanoyloxy)benzoate]
4.70 to 6.30 | O=S(=O)(Nc1cc(-c2ccccc2)ccc1F)c1cc(Cl)cc(Cl)c1F [I-207, 3,5-dichloro-2-fluoro-N-[4-fluoro-[1,1-biphenyl]-3-yl]benzene-1-sulfonamide]
< 4.70 | CNC(=O)c1cc(Cl)c(OC)c(S(=O)(=O)Nc2cc(-c3ccccc3)ccc2OC)c1 [I-433, 3-chloro-4-methoxy-5-(N-(4-methoxy-[1,1′-biphenyl]-3-yl)sulfamoyl)-N-methylbenzamide]
4.70 to 6.30 | COC(=O)c1cc(Cl)c(OC)c(S(=O)(=O)Nc2cc(-c3cccnc3)ccc2OC)c1 [I-42, Methyl 3-chloro-4-methoxy-5-(N-(2-methoxy-5-(pyridine-3-yl)phenyl)sulfamoyl)benzoate]
4.70 to 6.30 | Cc1c(CNS(=O)(=O)c2cc(Cl)cc(Cl)c2O)n(C)c2ccccc12 [I-181]
< 4.70 | COC(=O)Cc1ccc(-c2ccccc2)cc1NS(=O)(=O)c1cc(Cl)cc(Cl)c1 [I-530, methyl 2-(3-((3,5-dichlorophenyl)sulfonamido)-[1,1′-biphenyl]-4-yl)acetate]

Same assay, conditions: read-out: ACL-ADP-Glo (IC50); 3 nM ACL, 15 μM ATP, 3 μM CoA, 300 μM Citrate

SMILES | pIC50
O=C(O)c1ccc(-c2ccccc2)cc1NCc1cc(Cl)cc(Cl)c1 [I-371, 3-((3,5-dichlorobenzyl)amino)-[1,1′-biphenyl]-4-carboxylic Acid] | 4.70 to 6.30
O=C(c1cc(Cl)c(O)c(S(=O)(=O)Nc2cc(-c3ccccc3)ccn2)c1)N1CCC1 [I-237] | 4.70 to 6.30
O=C(O)Cc1ccc(-c2ccccc2)cc1NS(=O)(=O)c1cc(Cl)cc(Cl)c1 [I-228, 2-(3-((3,5-dichlorophenyl)sulfonamido)-[1,1′-biphenyl]-4-yl)acetic Acid] | 4.70 to 6.30
CN(C)C(=O)c1cc(Cl)c(O)c(S(=O)(=O)Nc2cc(-c3ccccc3)ccc2C(=O)O)c1 [I-518, 3-((3-chloro-5-(dimethylcarbamoyl)-2-hydroxyphenyl)sulfonamido)-[1,1′-biphenyl]-4-carboxylic Acid] | 4.70 to 6.30
